US7018813B2 (priority 2000, dated 2006)
Where two headings read alike, the source gives them in different places.

Key:
[1] = at 25° C.; cited from earlier work
[2] = cited from earlier work
[3] = tested on: B. pertussis strain ATCC 9797 or CS87; type: cell-based, Bordetella pertussis

| Molecule | Ksp [1] | solubility in water ([2]; at 25° C.) | solubility in water ([2]; at 100° C.) | amount of PT [3] |
| --- | --- | --- | --- | --- |
| O=S(=O)([O-])[O-].[Ag+].[Ag+] [AgSO4] | 1.19 × 10^−5 |  |  |  |
| O=S(=O)([O-])[O-].[Pb+2] [PbSO4] | 1.82 × 10^−8 |  |  |  |
| O=S(=O)([O-])[O-].[Sr+2] [SrSO4] | 3.42 × 10^−7 |  |  |  |
| BaSO4 | 1.05 × 10^−10 | 10.7 µM | 17.7 µM |  |
| Barium chloride [BaCl2] |  |  |  | 0.525 μg/mL/OD650 |
